Measured values published in publication PMC11094793, “Discovery of LLC0424 as a Potent and Selective in Vivo NSD2 PROTAC Degrader” (Journal of Medicinal Chemistry, 2024).
Where two headings read alike, the source gives them in different places.

Molecular target: T1, NSD2 (Homo sapiens, UniProt O96028)
T1 sequence (O96028 1-1365): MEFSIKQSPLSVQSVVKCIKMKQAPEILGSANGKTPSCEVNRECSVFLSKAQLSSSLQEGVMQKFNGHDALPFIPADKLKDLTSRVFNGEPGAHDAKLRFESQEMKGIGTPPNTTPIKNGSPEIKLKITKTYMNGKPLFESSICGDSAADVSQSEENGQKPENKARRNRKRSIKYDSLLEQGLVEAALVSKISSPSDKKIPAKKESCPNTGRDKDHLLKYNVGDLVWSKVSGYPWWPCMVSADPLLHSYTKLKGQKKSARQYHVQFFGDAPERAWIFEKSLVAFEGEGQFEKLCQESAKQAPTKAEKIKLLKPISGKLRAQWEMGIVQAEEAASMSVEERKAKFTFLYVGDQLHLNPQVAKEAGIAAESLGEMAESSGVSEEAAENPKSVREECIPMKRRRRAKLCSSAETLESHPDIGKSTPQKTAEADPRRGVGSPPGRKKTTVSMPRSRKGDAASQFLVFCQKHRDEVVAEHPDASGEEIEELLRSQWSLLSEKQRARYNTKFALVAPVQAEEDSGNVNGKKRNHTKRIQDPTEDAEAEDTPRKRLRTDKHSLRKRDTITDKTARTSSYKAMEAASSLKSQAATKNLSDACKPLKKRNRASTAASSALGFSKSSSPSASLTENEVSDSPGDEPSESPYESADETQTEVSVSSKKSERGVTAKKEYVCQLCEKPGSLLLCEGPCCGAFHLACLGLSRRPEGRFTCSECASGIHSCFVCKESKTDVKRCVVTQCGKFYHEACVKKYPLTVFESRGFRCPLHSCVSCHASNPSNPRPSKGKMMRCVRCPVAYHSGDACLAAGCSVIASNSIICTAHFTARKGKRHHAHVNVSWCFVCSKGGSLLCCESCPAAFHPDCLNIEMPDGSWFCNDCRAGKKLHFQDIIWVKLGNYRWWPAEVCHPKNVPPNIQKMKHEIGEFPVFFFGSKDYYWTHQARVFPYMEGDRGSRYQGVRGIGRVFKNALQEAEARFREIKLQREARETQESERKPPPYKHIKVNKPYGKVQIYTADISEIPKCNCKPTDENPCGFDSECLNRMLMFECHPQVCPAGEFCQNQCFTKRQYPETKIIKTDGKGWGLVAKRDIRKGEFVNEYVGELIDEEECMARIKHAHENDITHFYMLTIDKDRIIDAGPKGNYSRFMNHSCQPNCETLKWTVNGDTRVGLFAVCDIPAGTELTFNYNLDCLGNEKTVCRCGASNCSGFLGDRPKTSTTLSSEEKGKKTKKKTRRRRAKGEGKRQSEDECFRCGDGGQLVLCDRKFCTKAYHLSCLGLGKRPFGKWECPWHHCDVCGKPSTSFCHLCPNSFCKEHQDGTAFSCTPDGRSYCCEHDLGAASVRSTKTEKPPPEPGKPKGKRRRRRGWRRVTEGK
Assay: Compound screening: NSD2 degradation by immunoblotting in VCaP cells
Details: 24 h; for Dmax at 2 µM: VCaP

[1] = read-out: 2.0 μM Degradation % (VCaP)

Experimental: After treatment, the cultured cells were collected and rinsed with phosphate-buffered saline (PBS) in room temperature. The cells were treated with RIPA buffers (ThermoFisher Scientific) supplemented with Halt Protease and Phosphatase Inhibitor Cocktail (ThermoFisher Scientific). After sonication and centrifugation, the total amount of protein in the cell lysates was measured by Pierce Bovine Serum Albumin Standard Pre-Diluted Set (ThermoFisher Scientific). […] After incubated with HRP-conjugated secondary antibodies, the membranes were developed with ECL Prime Western Blotting Detection Reagent (cytiva) and imaged on Odyssey Fc Imager (LiCOR Biosciences).
Western blot was then performed as previously described to detect NSD2 degradation.

SMILES | Dmax at 2 µM [1] | Dmax at 2 µM (read-out: % Degradation) | % Degradation (2 μM, VCaP cells, immunoblotting)
O=C1CCC(N2C(=O)c3cccc(NCCNC(=O)c4ccc(NC(=O)c5ccc(CN(C(=O)c6ccc7c(c6)OCC(=O)N7)C6CC6)cc5)cc4)c3C2=O)C(=O)N1 (stereo not shown) [compound 10a, N-Cyclopropyl-N-(4-((4-((2-((2-(2,6-dioxopiperidin-3-yl)-1,3-dioxoisoindolin-4-yl)amino)ethyl)carbamoyl)phenyl)carbamoyl)benzyl)-3-oxo-3,4-dihydro-2H-benzo[b][1,4]oxazine-7-carboxamide] | 17% | 17% | –
O=C1CCC(N2C(=O)c3ccc(NC4CCN(C(=O)c5ccc(NC(=O)c6ccc(CN(C(=O)c7ccc8c(c7)OCC(=O)N8)C7CC7)cc6)cc5)CC4)cc3C2=O)C(=O)N1 (stereo not shown) [compound 10k, N-Cyclopropyl-N-(4-((4-(4-((2-(2,6-dioxopiperidin-3-yl)-1,3-dioxoisoindolin-5-yl)amino)piperidine-1-carbonyl)phenyl)carbamoyl)benzyl)-3-oxo-3,4-dihydro-2H-benzo[b][1,4]oxazine-7-carboxamide] | 48% | 48% | significant potency loss
O=C1CCC(N2C(=O)c3ccc(N4CCC(CNC(=O)c5ccc(NC(=O)c6ccc(CN(C(=O)c7ccc8c(c7)OCC(=O)N8)C7CC7)cc6)cc5)CC4)cc3C2=O)C(=O)N1 (stereo not shown) [10n, N-Cyclopropyl-N-(4-((4-(((1-(2-(2,6-dioxopiperidin-3-yl)-1,3-dioxoisoindolin-5-yl)piperidin-4-yl)methyl)carbamoyl)phenyl)carbamoyl)benzyl)-3-oxo-3,4-dihydro-2H-benzo[b][1,4]oxazine-7-carboxamide] | 74% | 74% | –
O=C1CCC(N2C(=O)c3cccc(NCCCCNC(=O)c4ccc(NC(=O)c5ccc(CN(C(=O)c6ccc7c(c6)OCC(=O)N7)C6CC6)cc5)cc4)c3C2=O)C(=O)N1 (stereo not shown) [compound 10b, N-Cyclopropyl-N-(4-((4-((4-((2-(2,6-dioxopiperidin-3-yl)-1,3-dioxoisoindolin-4-yl)amino)butyl)carbamoyl)phenyl)carbamoyl)benzyl)-3-oxo-3,4-dihydro-2H-benzo[b][1,4]oxazine-7-carboxamide] | 25% | 25% | –
O=C1CCC(N2C(=O)c3ccc(NCCCNC(=O)c4ccc(NC(=O)c5ccc(CN(C(=O)c6ccc7c(c6)OCC(=O)N7)C6CC6)cc5)cc4)cc3C2=O)C(=O)N1 (stereo not shown) [compound 10f, N-Cyclopropyl-N-(4-((4-((3-((2-(2,6-dioxopiperidin-3-yl)-1,3-dioxoisoindolin-5-yl)amino)propyl)carbamoyl)phenyl)carbamoyl)benzyl)-3-oxo-3,4-dihydro-2H-benzo[b][1,4]oxazine-7-carboxamide] | 94% | 94% | –
O=C1CCC(N2C(=O)c3ccc(N4CCN(C(=O)c5ccc(NC(=O)c6ccc(CN(C(=O)c7ccc8c(c7)OCC(=O)N8)C7CC7)cc6)cc5)CC4)cc3C2=O)C(=O)N1 (stereo not shown) [10m, N-Cyclopropyl-N-(4-((4-(4-(2-(2,6-dioxopiperidin-3-yl)-1,3-dioxoisoindolin-5-yl)piperazine-1-carbonyl)phenyl)carbamoyl)benzyl)-3-oxo-3,4-dihydro-2H-benzo[b][1,4]oxazine-7-carboxamide] | 41% | 41% | –
CC1(NC(=O)c2ccc(NC(=O)c3ccc(CN(C(=O)c4ccc5c(c4)OCC(=O)N5)C4CC4)cc3)cc2)CCN(c2ccc3c(c2)C(=O)N(C2CCC(=O)NC2=O)C3=O)CC1 (stereo not shown) [10p, N-Cyclopropyl-N-(4-((4-((1-(2-(2,6-dioxopiperidin-3-yl)-1,3-dioxoisoindolin-5-yl)-4-methylpiperidin-4-yl)carbamoyl)phenyl)carbamoyl)benzyl)-3-oxo-3,4-dihydro-2H-benzo[b][1,4]oxazine-7-carboxamide] | 30% | 30% | –
O=C1CCC(N2C(=O)c3ccc(NCCNC(=O)c4ccc(NC(=O)c5ccc(CN(C(=O)c6ccc7c(c6)OCC(=O)N7)C6CC6)cc5)cc4)cc3C2=O)C(=O)N1 (stereo not shown) [10e, N-cyclopropyl-N-(4-((4-((2-((2-(2,6-dioxopiperidin-3-yl)-1,3-dioxoisoindolin-5-yl)amino)ethyl)carbamoyl)phenyl)carbamoyl)benzyl)-3-oxo-3,4-dihydro-2H-benzo[b][1,4]oxazine-7-carboxamide] | 70% | 70% | –
O=C1CCC(N2C(=O)c3ccc(NCCCCNC(=O)c4ccc(NC(=O)c5ccc(CN(C(=O)c6ccc7c(c6)OCC(=O)N7)C6CC6)cc5)cc4)cc3C2=O)C(=O)N1 (stereo not shown) [10g, N-Cyclopropyl-N-(4-((4-((4-((2-(2,6-dioxopiperidin-3-yl)-1,3-dioxoisoindolin-5-yl)amino)butyl)carbamoyl)phenyl)carbamoyl)benzyl)-3-oxo-3,4-dihydro-2H-benzo[b][1,4]oxazine-7-carboxamide] | 92% | 92% | –
O=C1CCC(N2C(=O)c3ccc(NCCCCCNC(=O)c4ccc(NC(=O)c5ccc(CN(C(=O)c6ccc7c(c6)OCC(=O)N7)C6CC6)cc5)cc4)cc3C2=O)C(=O)N1 (stereo not shown) [10h, N-Cyclopropyl-N-(4-((4-((5-((2-(2,6-dioxopiperidin-3-yl)-1,3-dioxoisoindolin-5-yl)amino)pentyl)carbamoyl)phenyl)carbamoyl)benzyl)-3-oxo-3,4-dihydro-2H-benzo[b][1,4]oxazine-7-carboxamide] | 80% | 80% | –
O=C1CCC(N2C(=O)c3ccc(N4CCCC(NC(=O)c5ccc(NC(=O)c6ccc(CN(C(=O)c7ccc8c(c7)OCC(=O)N8)C7CC7)cc6)cc5)C4)cc3C2=O)C(=O)N1 (stereo not shown) [10q, N-Cyclopropyl-N-(4-((4-((1-(2-(2,6-dioxopiperidin-3-yl)-1,3-dioxoisoindolin-5-yl)piperidin-3-yl)carbamoyl)phenyl)carbamoyl)benzyl)-3-oxo-3,4-dihydro-2H-benzo[b][1,4]oxazine-7-carboxamide] | 3% | 3% | –
O=C1CCC(N2C(=O)c3ccc(NCCCCCCCCNC(=O)c4ccc(NC(=O)c5ccc(CN(C(=O)c6ccc7c(c6)OCC(=O)N7)C6CC6)cc5)cc4)cc3C2=O)C(=O)N1 (stereo not shown) [10j, N-Cyclopropyl-N-(4-((4-((8-((2-(2,6-dioxopiperidin-3-yl)-1,3-dioxoisoindolin-5-yl)amino)octyl)carbamoyl)phenyl)carbamoyl)benzyl)-3-oxo-3,4-dihydro-2H-benzo[b][1,4]oxazine-7-carboxamide] | 90% | 90% | –
O=C1CCC(N2C(=O)c3ccc(NCCCCCCNC(=O)c4ccc(NC(=O)c5ccc(CN(C(=O)c6ccc7c(c6)OCC(=O)N7)C6CC6)cc5)cc4)cc3C2=O)C(=O)N1 (stereo not shown) [10i, N-Cyclopropyl-N-(4-((4-((6-((2-(2,6-dioxopiperidin-3-yl)-1,3-dioxoisoindolin-5-yl)amino)hexyl)carbamoyl)phenyl)carbamoyl)benzyl)-3-oxo-3,4-dihydro-2H-benzo[b][1,4]oxazine-7-carboxamide] | 83% | 83% | –
CN(C(=O)c1ccc(NC(=O)c2ccc(CN(C(=O)c3ccc4c(c3)OCC(=O)N4)C3CC3)cc2)cc1)C1CCN(c2ccc3c(c2)C(=O)N(C2CCC(=O)NC2=O)C3=O)CC1 (stereo not shown) [10o, N-Cyclopropyl-N-(4-((4-((1-(2-(2,6-dioxopiperidin-3-yl)-1,3-dioxoisoindolin-5-yl)piperidin-4-yl)(methyl)carbamoyl)phenyl)carbamoyl)benzyl)-3-oxo-3,4-dihydro-2H-benzo[b][1,4]oxazine-7-carboxamide] | 89% | 89% | –
O=C1CCC(N2C(=O)c3cccc(NCCCCCCCCNC(=O)c4ccc(NC(=O)c5ccc(CN(C(=O)c6ccc7c(c6)OCC(=O)N7)C6CC6)cc5)cc4)c3C2=O)C(=O)N1 (stereo not shown) [10d, N-Cyclopropyl-N-(4-((4-((8-((2-(2,6-dioxopiperidin-3-yl)-1,3-dioxoisoindolin-4-yl)amino)octyl)carbamoyl)phenyl)carbamoyl)benzyl)-3-oxo-3,4-dihydro-2H-benzo[b][1,4]oxazine-7-carboxamide] | 13% | 13% | –
